Results from patent publication US12414911B2, “Topical compositions and methods of use” (priority 2012, dated 2025).

What was measured:
T. Rubrum = assay: Agar-solid Diffusion Method, inhibition zone; type: cell-based; details: Trichophyton rubrum
P. Acnes = assay: Agar-solid Diffusion Method, inhibition zone; type: cell-based; details: Cutibacterium acnes
C. Albicans = assay: Agar-solid Diffusion Method, inhibition zone; type: cell-based; details: Candida albicans
E. Coli = assay: Agar-solid Diffusion Method, inhibition zone; type: cell-based; details: Escherichia coli
Staph Aureus = assay: Agar-solid Diffusion Method, inhibition zone; type: cell-based; details: Staphylococcus aureus
[1] = test system: LTB4 release from macrophages; assay: Inhibition of LTB4 release from stimulated macrophage cell line (radioimmunoassay); type: cell-based; details: NDGA 25 uM, positive control
Method: MFSO and the MFB skin extract have Anti-inflammatory Activity.
MFSO and the MFB skin extract were dissolved in DMSO and added to cell culture medium at a stock concentration for use in these in vitro experiments. The ability of MFSO to function as an inhibitor of LTB4 release was evaluated using a macrophage cell line followed by the addition of calcium iontophore for stimulation of LTB4 and the use of a radioimmunoassay (Amersham) for LTB4 detection as previously described (Garrido G, González D, Lemus Y, Garcia D, Lodeiro L, Quintero G, Delporte C, Núñez-Sellés A J, Delgado R. In vivo and in vitro anti-inflammatory activity of Mangifera indica L. extract (VIMANG). Pharmacol Res. 2004 August; 50 (2):143-9). NDGA (25 uM) is a known positive control that inhibits LTB4 release and the vehicle control consisted of DMSO in culture medium with no MFSO.

[2] = UVB SPF activity of formulations; type: in vivo, human; details: Octinoxate 3% alone
Method: Formulations containing MFSO and octyl methoxycinnamate (Octinoxate), alone and in combination, were prepared without changing the vehicle base and tested for UVB SPF activity (2 subjects).
To evaluate for SPF boosting effects of MFSO, a concentration of Octinoxate was selected that gave SPF values that would allow for its efficient absorption and avoid the saturation effect that occurs when higher concentrations of sunscreens are used.

Normal human spermatozoa = assay: Spermicidal activity (Sander-Cramer assay); type: cell-based; design: key: +: Mobile; −: Immobile; ±: 90% lost mobility; details: 1% concentration
Excerpt: Normal human spermatozoa were used to assess the spermicidal activity (Sander-Cramer assay) of MFSO as described (Benhong Z., Zhenpeng Q, Gang L, Chun L, Zhang J. Spermicidal and antigonococcal effects of tannins from pomegranate rind. Journal of Medicinal Plants Research 2012 February; 6 (7); 1334-1339). Nonoxynol-9 was used as a positive reference standard and semen added to physiological saline was used as the negative control. Semen samples were donated by 3 healthy fertile men. The minimum MFSO concentration that caused 100% immobilization of sperm within 20 seconds was considered to be the minimal effective concentration (MEC).

O=C(N[C@H](CO)[C@H](O)c1ccc([N+](=O)[O-])cc1)C(Cl)Cl [Chloramphenicol]
zone of inhibition at 30 µM (T. Rubrum; 30 uM): 0 mm | zone of inhibition at 30 µM (P. Acnes; 30 uM): 25 mm | zone of inhibition at 30 µM (C. Albicans; 30 uM): 0 mm | zone of inhibition at 30 µM (E. Coli; 30 uM): 0 mm | zone of inhibition at 30 µM (Staph Aureus; 30 uM): 25 mm

O=C(O)c1cn(C2CC2)c2cc(N3CCNCC3)c(F)cc2c1=O [Ciprofloxacin]
zone of inhibition at 10 µM (T. Rubrum; 10 uM): 0 mm | zone of inhibition at 10 µM (P. Acnes; 10 uM): 22 mm | zone of inhibition at 10 µM (C. Albicans; 10 uM): 0 mm | zone of inhibition at 10 µM (E. Coli; 10 uM): 25 mm | zone of inhibition at 10 µM (Staph Aureus; 10 uM): 25 mm

CC(=O)N1CCN(c2ccc(OCC3COC(Cn4ccnc4)(c4ccc(Cl)cc4Cl)O3)cc2)CC1 (stereo not shown) [Ketoconazole]
zone of inhibition at 1000 µM (T. Rubrum; 1 mM): 25 mm | zone of inhibition at 1000 µM (P. Acnes; 1 mM): 0 mm | zone of inhibition at 1000 µM (C. Albicans; 1 mM): 25 mm | zone of inhibition at 1000 µM (E. Coli; read-out: Inhibition Zone): 0 mm | zone of inhibition at 1000 µM (Staph Aureus; 1 mM): 0 mm

CC(Cc1ccc(O)c(O)c1)C(C)Cc1ccc(O)c(O)c1 (stereo not shown) [NDGA]
inhibition of LTB4 release [1]: 98%

CCCCC(CC)COC(=O)C=Cc1ccc(OC)cc1 (stereo not shown) [Octinoxate, octyl methoxycinnamate]
SPF [2]: 3

Nonoxynol-9
Sperm Motility (Normal human spermatozoa; action time 20 seconds): − | Sperm Motility (Normal human spermatozoa; action time 60 seconds): −
